Test results: ChEMBL document CHEMBL4334516, “Kinase Chemodiversity from the Arctic: The Breitfussins” (J Med Chem, 2019)

Experiments:
[1] = target: Dual specificity tyrosine-phosphorylation-regulated kinase 1A (Homo sapiens, UniProt Q13627); test: Inhibition of DYRK1A (unknown origin) by [33P]-ATP filter binding kinase assay
[2] = tested on: MV4-11; test: Cytotoxicity in human MV4-11 cells assessed as reduction in cell viability incubated for 72 hrs by MTS assay; format: functional, cell-based; settings: MV4-11, 72 h
[3] = target: Receptor-interacting serine/threonine-protein kinase 2 (Homo sapiens, UniProt O43353); test: Inhibition of RIPK2 (unknown origin) by [33P]-ATP filter binding kinase assay
Chain of Receptor-interacting serine/threonine-protein kinase 2 (O43353 whole entry): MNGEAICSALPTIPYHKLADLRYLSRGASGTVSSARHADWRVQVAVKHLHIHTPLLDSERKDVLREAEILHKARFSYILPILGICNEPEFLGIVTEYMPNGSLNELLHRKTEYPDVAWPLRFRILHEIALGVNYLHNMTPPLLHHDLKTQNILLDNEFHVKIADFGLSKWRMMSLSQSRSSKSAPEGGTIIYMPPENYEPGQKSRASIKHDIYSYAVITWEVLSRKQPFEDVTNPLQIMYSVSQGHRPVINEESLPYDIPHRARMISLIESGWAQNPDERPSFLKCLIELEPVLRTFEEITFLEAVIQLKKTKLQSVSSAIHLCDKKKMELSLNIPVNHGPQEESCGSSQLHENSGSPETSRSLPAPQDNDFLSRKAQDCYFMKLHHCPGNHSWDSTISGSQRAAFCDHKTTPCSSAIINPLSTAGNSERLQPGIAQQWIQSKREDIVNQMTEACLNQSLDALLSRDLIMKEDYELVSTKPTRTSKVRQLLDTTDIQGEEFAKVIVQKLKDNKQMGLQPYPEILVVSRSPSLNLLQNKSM

[4] = target: T1, Mitogen-activated protein kinase kinase kinase 7 (Homo sapiens, UniProt O43318); test: Inhibition of TAK1 (unknown origin) by [33P]-ATP filter binding kinase assay
T1 sequence (O43318 whole entry): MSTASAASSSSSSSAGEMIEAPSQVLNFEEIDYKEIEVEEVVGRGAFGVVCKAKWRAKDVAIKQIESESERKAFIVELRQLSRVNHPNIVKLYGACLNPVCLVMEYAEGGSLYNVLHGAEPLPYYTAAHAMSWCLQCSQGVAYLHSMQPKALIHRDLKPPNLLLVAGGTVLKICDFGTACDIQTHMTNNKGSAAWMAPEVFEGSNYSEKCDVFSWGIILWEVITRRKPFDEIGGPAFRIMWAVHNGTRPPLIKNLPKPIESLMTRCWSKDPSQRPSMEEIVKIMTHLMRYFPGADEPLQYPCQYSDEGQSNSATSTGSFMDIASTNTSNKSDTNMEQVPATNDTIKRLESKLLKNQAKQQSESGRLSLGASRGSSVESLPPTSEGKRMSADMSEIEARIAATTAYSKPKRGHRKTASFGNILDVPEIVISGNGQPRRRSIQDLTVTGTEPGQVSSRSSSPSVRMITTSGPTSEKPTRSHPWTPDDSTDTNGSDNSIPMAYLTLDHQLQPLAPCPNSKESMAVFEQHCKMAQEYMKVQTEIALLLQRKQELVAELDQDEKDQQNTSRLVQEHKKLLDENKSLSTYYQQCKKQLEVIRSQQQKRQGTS

[5] = target: T2, Serine/threonine-protein kinase 17A (Homo sapiens, UniProt Q9UEE5); test: Inhibition of Alexa Fluor 647-labeled ATP competitive kinase tracer binding to GST-tagged DRAK1 (unknown origin) by FRET based cell free ATP-competitive tracer displacement assay
T2 sequence (Q9UEE5 whole entry): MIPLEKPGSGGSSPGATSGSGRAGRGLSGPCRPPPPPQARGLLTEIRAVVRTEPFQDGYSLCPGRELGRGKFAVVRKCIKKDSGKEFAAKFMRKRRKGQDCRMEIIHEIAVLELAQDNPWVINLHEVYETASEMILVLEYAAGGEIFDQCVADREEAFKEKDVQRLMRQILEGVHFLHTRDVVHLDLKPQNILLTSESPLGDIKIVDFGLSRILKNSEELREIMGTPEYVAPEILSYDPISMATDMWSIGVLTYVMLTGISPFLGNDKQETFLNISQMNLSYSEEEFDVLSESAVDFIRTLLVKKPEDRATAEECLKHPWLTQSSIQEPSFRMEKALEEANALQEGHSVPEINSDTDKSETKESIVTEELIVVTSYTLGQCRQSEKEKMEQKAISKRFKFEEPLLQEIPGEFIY

[6] = target: T3, Aurora kinase A (Homo sapiens, UniProt O14965); test: Inhibition of Aurora A (unknown origin) by [33P]-ATP filter binding kinase assay
T3 sequence (O14965 whole entry): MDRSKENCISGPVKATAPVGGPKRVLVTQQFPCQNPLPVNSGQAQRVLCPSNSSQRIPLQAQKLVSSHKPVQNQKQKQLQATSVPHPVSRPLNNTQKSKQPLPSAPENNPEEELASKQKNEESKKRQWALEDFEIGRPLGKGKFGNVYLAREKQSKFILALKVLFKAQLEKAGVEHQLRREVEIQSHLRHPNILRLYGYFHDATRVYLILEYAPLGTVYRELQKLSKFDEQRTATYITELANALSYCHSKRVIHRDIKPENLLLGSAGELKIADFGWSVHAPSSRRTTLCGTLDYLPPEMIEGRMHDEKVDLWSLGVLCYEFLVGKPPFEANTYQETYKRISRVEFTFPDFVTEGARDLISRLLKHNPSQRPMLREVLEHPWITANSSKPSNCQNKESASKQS

[7] = target: T4, Mitogen-activated protein kinase 15 (Homo sapiens, UniProt Q8TD08); test: Inhibition of ERK8 (unknown origin) by [33P]-ATP filter binding kinase assay
T4 sequence (Q8TD08 whole entry): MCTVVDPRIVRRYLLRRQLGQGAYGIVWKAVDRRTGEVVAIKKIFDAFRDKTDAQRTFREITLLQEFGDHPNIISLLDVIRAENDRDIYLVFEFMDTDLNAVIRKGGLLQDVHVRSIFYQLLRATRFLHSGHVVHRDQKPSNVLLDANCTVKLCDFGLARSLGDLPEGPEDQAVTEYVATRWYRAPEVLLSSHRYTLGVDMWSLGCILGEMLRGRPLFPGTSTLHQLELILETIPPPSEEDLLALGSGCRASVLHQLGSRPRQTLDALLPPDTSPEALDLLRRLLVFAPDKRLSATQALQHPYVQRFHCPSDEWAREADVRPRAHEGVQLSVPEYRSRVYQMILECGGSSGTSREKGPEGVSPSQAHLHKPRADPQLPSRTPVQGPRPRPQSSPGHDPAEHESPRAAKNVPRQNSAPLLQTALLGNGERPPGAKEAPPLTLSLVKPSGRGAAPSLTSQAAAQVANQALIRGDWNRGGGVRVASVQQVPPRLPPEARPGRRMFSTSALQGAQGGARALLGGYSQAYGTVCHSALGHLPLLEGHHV

[8] = target: Mitogen-activated protein kinase kinase kinase 9 (Homo sapiens, UniProt P80192); test: Inhibition of MLK1 (unknown origin) by [33P]-ATP filter binding kinase assay
Chain of Mitogen-activated protein kinase kinase kinase 9 (P80192 whole entry): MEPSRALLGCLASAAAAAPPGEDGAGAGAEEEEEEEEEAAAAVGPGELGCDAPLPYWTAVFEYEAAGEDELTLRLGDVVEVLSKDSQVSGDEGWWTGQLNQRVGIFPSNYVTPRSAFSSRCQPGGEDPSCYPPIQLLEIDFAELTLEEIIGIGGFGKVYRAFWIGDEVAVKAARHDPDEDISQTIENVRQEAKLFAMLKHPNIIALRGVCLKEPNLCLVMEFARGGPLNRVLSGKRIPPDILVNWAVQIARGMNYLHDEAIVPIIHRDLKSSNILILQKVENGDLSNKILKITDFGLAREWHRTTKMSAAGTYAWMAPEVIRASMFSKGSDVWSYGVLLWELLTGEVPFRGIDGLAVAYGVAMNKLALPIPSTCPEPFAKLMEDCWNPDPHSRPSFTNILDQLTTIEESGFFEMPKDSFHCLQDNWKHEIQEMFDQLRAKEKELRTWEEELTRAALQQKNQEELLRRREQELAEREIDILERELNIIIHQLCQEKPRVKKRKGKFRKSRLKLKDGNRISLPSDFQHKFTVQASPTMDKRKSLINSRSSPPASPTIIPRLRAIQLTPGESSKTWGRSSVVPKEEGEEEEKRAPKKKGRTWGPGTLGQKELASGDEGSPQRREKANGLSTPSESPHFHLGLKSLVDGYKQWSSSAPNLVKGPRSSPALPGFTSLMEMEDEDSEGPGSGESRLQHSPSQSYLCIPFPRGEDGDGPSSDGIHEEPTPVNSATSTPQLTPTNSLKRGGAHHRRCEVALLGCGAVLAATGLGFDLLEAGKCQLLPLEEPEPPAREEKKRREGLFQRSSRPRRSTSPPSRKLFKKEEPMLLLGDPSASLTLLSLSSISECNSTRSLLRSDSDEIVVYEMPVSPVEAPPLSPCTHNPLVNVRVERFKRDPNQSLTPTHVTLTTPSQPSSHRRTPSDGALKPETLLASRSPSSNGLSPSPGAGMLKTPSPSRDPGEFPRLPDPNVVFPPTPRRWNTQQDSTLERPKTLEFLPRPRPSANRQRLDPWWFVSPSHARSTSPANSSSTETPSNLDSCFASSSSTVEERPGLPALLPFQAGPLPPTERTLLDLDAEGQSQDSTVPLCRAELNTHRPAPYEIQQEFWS

`COc1cc(Br)cc2[nH]cc(-c3cnc(-c4ccc(Br)[nH]4)o3)c12` was tested, and the IC50 [1] was > 10 µM, the IC50 [2] was > 10 µM and the IC50 [3] was > 10 µM. For the same compound, the IC50 [4] was > 10 µM, the IC50 [5] was > 10 µM and the IC50 [6] was > 10 µM. The IC50 [7] was > 10 µM and the IC50 [8] was > 10 µM.

For `COc1cc2c(-c3cnc(-c4ccc[nH]4)o3)c[nH]c2cc1Br`, the IC50 [2] was 4.4 µM, the IC50 [3] was 1.1 µM and the IC50 [4] was 1.2 µM. For the same compound, the IC50 [6] was 22 µM, the IC50 [7] was 1 µM and the IC50 [8] was 0.6 µM.

In the case of `COc1cc(Br)cc2[nH]cc(-c3oc(-c4ccc[nH]4)nc3I)c12`, the IC50 [1] is reported as > 10 µM, the IC50 [2] is reported as > 10 µM and the IC50 [3] is reported as > 10 µM. For the same compound, the IC50 [4] was > 10 µM, the IC50 [5] was > 10 µM and the IC50 [6] was > 10 µM. The IC50 [7] was > 10 µM and the IC50 [8] was > 10 µM.

`COc1cc(Br)cc2[nH]cc(-c3cnc(-c4ccc[nH]4)o3)c12` was tested, and the IC50 [1] was > 10 µM, the IC50 [2] was > 10 µM and the IC50 [3] was > 10 µM. For the same compound, the IC50 [4] was 1 µM, the IC50 [5] was 9.6 µM and the IC50 [6] was > 10 µM. It also gave an IC50 [7] of 46 µM and an IC50 [8] of 0.9 µM.
